Test results as given in patent US8178506B2, “Oligomeric compounds and compositions for use in modulation of small non-coding RNAs” (Regulus Therapeutics Inc., priority 2003, dated 2012).
In the oligonucleotide strings, read from the 5' end, every base follows the letter of its sugar. An asterisk marks phosphorothioate; unmarked linkages are phosphodiester. Other units and linkages are bracketed, terminal groups are in braces. A string of capitals states the bases alone. e = 2'-O-(2-methoxyethyl) (MOE); [5mC] = 5-methylcytosine; d = 2'-deoxy (DNA)

Tested on: HeLa cells
Assay: Cell cycle assay in HeLa cells
Assay type: cell-based, human
Conditions: HeLa, 150 nM; for chromosome missegregation (subG1 or aneuploid DNA content): 24-hour and 48-hour timepoints
Experimental: In some embodiments, HeLa cells were plated on collagen-coated 24-well plates at 50,000-60,000 cells per well, and allowed to attach to wells overnight. In some embodiments, HeLa cells were synchronized by double thymidine block (cells were washed three times with PBS, then grown in 10% FBS containing 2 mM thymidine; then 19 hours later, cells were washed three times in PBS, 10% FBS for 9 hours; cells were then incubated in 10% FBS, 2 mM thymidine for 15 hours; then washed three times with PBS, 10% FBS and samples were taken every two hours over a 16 hour period). A portion of each time sample was fixed with ethanol and treated with propidium iodide and subjected to FACs analysis for determination of the percentage of cells in each phase of the cell cycle. […] HeLa cells treated with 10 μM cisplatin or 100 ng/ml nocodazole were used as controls for G1-phase and late G2/M-phases, respectively. From the remaining portion of each of these time samples, total RNA was isolated and used to assess the expression of cell cycle marker mRNAs using the real-time RT-PCR methods and/or used to screen microarrays to assess the expression of miRNAs over the course of the cell cycle. It was observed that several miRNAs are expressed in a cell-cycle-dependent manner. Shown in Table 30 are the mRNA levels of the E2F1 transcription factor and topoisomerase 2A (Top2A), which vary over the course of the cell cycle and can be used for comparison to the experimental groups for the confirmation of cell cycle phase. Data are an average of three trials.
In some embodiments, HeLa cells were also treated with oligomeric compounds targeting miRNAs. […] The medium was removed from the plates. Each well was washed in 250 μl of PBS. […] Control cells received LIPOFECTIN™ only. […] After 24 hours (Table 31) or 48 hours (Table 32), cells were prepared for flow cytometry analysis to generate a cell cycle profile. The cell cycle profile was analyzed with the ModFit program (Verity Software House, Inc., Topsham Me.).
The random-mer ISIS 29848 (SEQ ID NO: 737) was used as a negative control, and ISIS 183891 (SEQ ID NO: 847), targeting kinesin-like 1/Eg5, was included as a positive control. Data are expressed as percentage of cells in each phase relative to the untreated control (UTC); values above 100 are considered to indicate a delay or arrest in that phase of the cell cycle. […] In some cases, the same oligomeric compound was tested in repeated experiments.
In accordance with the present invention, certain oligomeric compounds targeting miRNAs were selected for dose response studies. Using the cell cycle assay described above, the cell cycle profiles of HeLa or A549 cells treated with varying concentrations of oligomeric compounds of the present invention were assessed.
HeLa cells were treated with 25-, 50-, 100- or 150 nM of the oligomeric compounds ISIS
Numbers 327902 (SEQ ID NO: 320) and 328383 (SEQ ID NO: 492), both targeted against mir-192, and ISIS 327905 (SEQ ID NO: 323), targeting mir-205, and ISIS 328403 (SEQ ID NO: 512), targeting mir-106. Cells treated with increasing concentrations of oligomeric compounds were compared to untreated cells, to assess the dose-dependency of the observed delay or arrest. The random-mer ISIS 29848 was used as a negative control. Cells were prepared for flow cytometry 48-hours after oligonucleotide treatment, as described, supra.

| Substance | phase of the cell cycle in which cells arrest or delay (48 hours) | chromosome missegregation (subG1 or aneuploid DNA content) | other results |
| --- | --- | --- | --- |
| CAGACTCCGGTGGAATGAAGGA (anti-miR; chemistry not fully specified) [ISIS 327905, uniform 2′-MOE PS; targets mir-205] | S-phase | – | – |
| GCCAAGGCGTGACATGATAT (chemistry not given here) [ISIS 25691, 5-10-5 2′-MOE gapmer PS targeted to Drosha RNase III mRNA] | increased percentage of cells in S-phase as well as a significant percentage of cells in the subG1 and aneuploid categories | – | – |
| GGTACAATCAACGGTCGATGGT (anti-miR; chemistry not fully specified) [ISIS 327934, uniform 2′-MOE PS; targets mir-213] | G2/M- and S-phases | – | – |
| ISIS 328403: 5-10-5 2′-MOE gapmer PS; SEQ ID NO 512; targets mir-106 pri-miRNA (eA*eG*eG*e[5mC]*e[5mC]*dT*dA*dT*dT*d[5mC]*d[5mC]*dT*dG*dT*dA*eG*e[5mC]*eA*eA*eA) [5-10-5 2′-MOE gapmer PS; targets mir-106 pri-miRNA] | S- and G2/M-phases | – | phase of the cell cycle in which cells arrest or delay (24 hours): G2/M-phase |
| ISIS 328707: SEQ ID NO: 616, targeting miR-100-1 (eG*e[5mC]*eA*eA*e[5mC]*dA*dG*dG*d[5mC]*d[5mC]*dT*d[5mC]*dA*dA*dT*eA*eT*e[5mC]*eT*eT) | – | – | phase of the cell cycle in which cells arrest or delay (both 24 and 48 hours): G2/M-phase |
| ISIS 328759: SEQ ID NO: 668, targeted to mir-216 (eG*eA*eG*eG*eG*dA*dT*dT*dG*dT*dA*dT*dG*dA*dA*e[5mC]*eA*eT*e[5mC]*eT) | delay or arrest resulted in the G2/M-phase | induce chromosome missegregation events | phase of the cell cycle in which cells arrest or delay (both 24 and 48 hours): G2/M-phase |
| ISIS 338678: SEQ ID NO: 505, targeted to the mir-205 pri-miRNA (CTGGTTGGGTATGAGACAGA; all 2'-MOE, all phosphorothioate, methylation of C not given here) | – | – | phase of the cell cycle in which cells arrest or delay (time point not stated): G2/M-phase |
| ISIS 338797: SEQ ID NO: 624, targeted to hypothetical miRNA-144 (CTGGGGAGGGGGTTAGCGTC; all 2'-MOE, all phosphorothioate, methylation of C not given here) | – | induce chromosome missegregation events | – |
| ISIS 338833: SEQ ID NO: 660, targeted to hypothetical miRNA-181 (TCGTGCACCTGAGGAGTCTG; all 2'-MOE, all phosphorothioate, methylation of C not given here) | – | induce chromosome missegregation events | – |
| ISIS 341787: SEQ ID NO: 852, targeted against mir-125a (mouse) (CACAGGTTAAAGGGTCTCAGGGA; all 2'-MOE, all phosphorothioate, methylation of C not given here) | arrest or delay in G2/M as well as an increased percentage of cells in the subG1 and aneuploid categories | – | – |
